These results are taken from publication PMC6804443 (Acta Pharmaceutica Sinica. B, 2019).

Some results are limits rather than exact numbers.

Data set [1] deals with ALDH. Type of data set: in vitro ADME. The note with it: human, pooled human liver cytosol.
Data set [2] addresses T1, OAT2 (Homo sapiens, UniProt Q9Y694).
T1 sequence (Q9Y694 1-546 isoform Q9Y694-2): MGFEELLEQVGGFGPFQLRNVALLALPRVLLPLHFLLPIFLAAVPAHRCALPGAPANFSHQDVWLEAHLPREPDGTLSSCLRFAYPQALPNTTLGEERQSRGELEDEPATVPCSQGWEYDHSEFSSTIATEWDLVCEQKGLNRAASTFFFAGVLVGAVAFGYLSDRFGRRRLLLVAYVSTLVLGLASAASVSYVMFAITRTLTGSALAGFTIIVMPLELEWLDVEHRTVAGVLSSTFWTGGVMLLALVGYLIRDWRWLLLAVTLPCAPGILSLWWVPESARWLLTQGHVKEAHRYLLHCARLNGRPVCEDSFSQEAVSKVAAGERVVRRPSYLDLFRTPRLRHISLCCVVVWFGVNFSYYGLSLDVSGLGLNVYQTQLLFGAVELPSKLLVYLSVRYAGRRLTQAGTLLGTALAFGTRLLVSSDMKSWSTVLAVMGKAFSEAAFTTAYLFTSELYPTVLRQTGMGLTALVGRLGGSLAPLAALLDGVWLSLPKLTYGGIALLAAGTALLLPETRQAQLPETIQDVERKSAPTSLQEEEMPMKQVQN
Nature of the data set: OAT2 inhibition by antibiotics, transfected HEK293 cells, tanshinol as substrate. Type of data set: in vitro ADME.

Data set [3] has as its target T2, OATP1B3 (Homo sapiens, UniProt Q9NPD5).
T2 sequence (Q9NPD5 1-702): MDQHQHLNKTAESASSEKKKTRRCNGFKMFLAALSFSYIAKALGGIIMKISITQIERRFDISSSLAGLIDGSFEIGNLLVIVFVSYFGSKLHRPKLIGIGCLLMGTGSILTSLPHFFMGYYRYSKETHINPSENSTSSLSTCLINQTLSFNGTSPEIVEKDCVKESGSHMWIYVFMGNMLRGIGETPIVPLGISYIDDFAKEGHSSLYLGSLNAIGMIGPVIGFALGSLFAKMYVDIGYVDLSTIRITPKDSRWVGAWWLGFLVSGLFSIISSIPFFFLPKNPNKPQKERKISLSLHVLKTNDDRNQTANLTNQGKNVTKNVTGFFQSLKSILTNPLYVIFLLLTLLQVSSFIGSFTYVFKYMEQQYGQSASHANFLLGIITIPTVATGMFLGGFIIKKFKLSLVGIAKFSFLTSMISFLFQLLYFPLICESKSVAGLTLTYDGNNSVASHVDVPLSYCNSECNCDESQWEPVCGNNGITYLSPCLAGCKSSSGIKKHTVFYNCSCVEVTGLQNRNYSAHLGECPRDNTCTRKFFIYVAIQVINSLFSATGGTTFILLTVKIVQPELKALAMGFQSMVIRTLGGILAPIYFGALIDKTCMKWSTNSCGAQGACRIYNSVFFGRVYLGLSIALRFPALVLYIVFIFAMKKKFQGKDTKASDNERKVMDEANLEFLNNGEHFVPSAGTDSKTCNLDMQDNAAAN
The note with it: IC50, OATP1B3 [X10], mean ± SD (n = 3).

For data set [4], the target named is T2, OATP1B3. Nature of the data set: in vitro.

In data set [1], `C[C@@H](O)[C@H]1C(=O)N2C(C(=O)O)=C(SCCN=CN)C[C@H]12` [A1, imipenem] returned an IC50 of 120 ± 30 µM and an inhibition at 1000 μmol/L of 56 to 88%.
As for `C[C@H]1COc2c(N3CCN(C)CC3)c(F)cc3c(=O)c(C(=O)O)cn1c23` [A31, levofloxacin], the IC50 in data set [2] turned out to be 50 ± 9 µM. Further, the inhibition at 100 µM in data set [2] (HEK293, read-out: Inhibition of OAT2) was 60 to 84%. The “Inhibition DDI index, OAT2” value in data set [2] (antibiotic as perpetrator, tanshinol (X8) as victim, (Cmax × fu-p × R)/IC50) was 0.36.
As to `CO[C@H]1/C=C/O[C@@]2(C)Oc3c(C)c(O)c4c(O)c(c(/C=N/N5CCN(C)CC5)c(O)c4c3C2=O)NC(=O)/C(C)=C\C=C\[C@H](C)[C@H](O)[C@@H](C)[C@@H](O)[C@@H](C)[C@H](OC(C)=O)[C@@H]1C` [A39, rifampin], the 50% inhibitory concentration (IC50) in data set [3] is 2 µM. In addition, the inhibition at 100 μmol/L in data set [4] was > 90%.
Turning to `C[C@@H](O)[C@H]1C(=O)N2C(C(=O)O)=C(S[C@@H]3CN[C@H](C(=O)N(C)C)C3)[C@H](C)[C@H]12` [A2, meropenem], in data set [1], half-maximal inhibition (IC50) was put at 164 ± 39 µM and the inhibition at 1000 μmol/L lay in the range of 56 to 88%.
Take `CC(C)(O/N=C(\C(=O)N[C@@H]1C(=O)N2C(C(=O)[O-])=C(C[n+]3ccccc3)CS[C@H]12)c1csc(N)n1)C(=O)O` [A7, ceftazidime]: in data set [1], the midpoint of inhibition, the IC50, lay at 1030 ± 155 µM and the inhibition at 5000 μmol/L was in the range of 56 to 88%.
In the case of `C[C@@H]1[C@H](O)[C@@H](C)/C=C/C=C/C=C/C=C/C=C/C=C/C=C/[C@H](O[C@@H]2O[C@H](C)[C@@H](O)[C@H](N)[C@@H]2O)C[C@@H]2O[C@](O)(C[C@@H](O)C[C@@H](O)[C@H](O)CC[C@@H](O)C[C@@H](O)CC(=O)O[C@H]1C)C[C@H](O)[C@H]2C(=O)O` [A42, amphotericin B], the half-inhibitory concentration (IC50) in data set [1] came to 87 ± 9 µM; in data set [3] it was 1 µM. Further, the inhibition at 100 μmol/L was 56 to 88% in data set [1] and 64 to 88% in data set [4].
On to `CC1(C)S[C@@H]2[C@H](NC(=O)Cc3ccccc3)C(=O)N2[C@H]1C(=O)O` [A15, penicillin G], for which the values for the half-inhibitory concentration (IC50) in data set [1] and in data set [3] were 308 ± 68 µM and 56 ± 21 µM, respectively. The inhibition at 5000 μmol/L in data set [4] was > 90%.
In data set [3], `CCC(C)n1ncn(-c2ccc(N3CCN(c4ccc(OCC5COC(Cn6cncn6)(c6ccc(Cl)cc6Cl)O5)cc4)CC3)cc2)c1=O` (stereo not shown) [A44, itraconazole] gave an IC50 of 4 ± 1 µM. Moreover, the inhibition at 100 μmol/L in data set [4] lay within 64 to 88%.
For the compound `COc1c(N2C[C@@H]3CCCN[C@@H]3C2)c(F)cc2c(=O)c(C(=O)O)cn(C3CC3)c12` [A33, moxifloxacin], the IC50 in data set [3] worked out at 17 ± 2 µM. Moreover, the inhibition at 100 μmol/L in data set [4] lay within 64 to 88%.
